Active and inactive are the calls of the source. No cut-off for these calls is given here.
Assays:
K562 [1] = test: Induction of DNA damage in human K562 cells assessed as gamma-H2AX accumulation at 20 uM incubated for 8 hrs by immunoblot analysis; type: functional, cell-based
[2] = Downregulation of ATM level in human SW620 cells transfected with NC shRNA by immunoblot analysis; type: functional, SW-620
[3] = Toxicity in Balb/c nude mouse assessed as effect on body weight loss at 15 mg/kg/day administered for 14 days in presence of AZD6738 […]; type: organism-based; settings: in vivo, 336 h, time 14 day
[4] = Downregulation of ATM level in human SW480 cells transfected with ATM shRNA by immunoblot analysis; type: functional
[5] = Cytotoxicity against human HIEC-6 cells assessed as reduction in cell viability incubated for 48 hrs by MTT assay; type: toxicity, cell-based
SW-620 [6] = test: Potentiation of AZD6738 induced DNA damage in human SW620 cells assessed as gamma-H2AX accumulation in nuclei at 5 uM incubated for 12 hrs by immunohistochemical staining based analysis; type: functional, cell-based
SW480 [7] = test: Downregulation of BCL2 level in human SW480 cells at 1.25 to 10 uM measured after 12 hrs by immunoblot analysis; type: functional, cell-based; settings: dose 1.25-10 µM
SW-620 [8] = test: Antitumor activity against human SW620 cells xenografted in Balb/c nude mouse model assessed as decrease in ATM protein level at 15 mg/kg/day measured after 14 days by Western blot analysis; type: functional, organism-based; settings: time 14.0 day
SW-620 [9] = test: Downregulation of KDM4B level in human SW620 cells measured after 12 hrs by immunoblot analysis; type: functional, cell-based; settings: dose 1.25-10 µM
K562 [10] = test: Downregulation of ATM level in human K562 cells measured after 8 hrs by immunoblot analysis; type: functional, cell-based; settings: dose 5-20 µM
SW480 [11] = test: Downregulation of ATM level in human SW480 cells measured after 12 hrs by immunoblot analysis; type: functional, cell-based; settings: dose 1.25-10 µM
K562 [12] = test: Potentiation of AZD6738 induced DNA damage in human K562 cells assessed as gamma-H2AX accumulation in nuclei at 5 uM incubated for 12 hrs by immunohistochemical staining based analysis; type: functional, cell-based
HCT-116 [13] = test: Cytotoxicity against human HCT-116 cells transfected with NC shRNA assessed as reduction in cell viability measured after 48 hrs by MTT assay; settings: HCT-116, 48 h
SW-620 [14] = test: Upregulation of cleaved caspase 3 level in human SW620 cells at 1.25 to 10 uM measured after 12 hrs by immunoblot analysis; type: functional, cell-based; settings: dose 1.25-10 µM
SW-620 [15] = test: Antitumor activity against human SW620 cells xenografted in Balb/c nude mouse model assessed as increase in gamma-H2AX level at 15 mg/kg/day measured after 14 days by Western blot analysis; type: functional, organism-based; settings: time 14.0 day
[16] = Toxicity in Balb/c nude mouse assessed as drug tolerance at 15 mg/kg/day administered for 14 days in presence of AZD6738; type: organism-based; settings: in vivo, 336 h, time 14 day
NCI-H358 = test: Cytotoxicity against human NCI-H358 cells assessed as reduction in cell viability incubated for 48 hrs by MTT assay; settings: NCI-H358, 48 h
SW-620 [17] = test: Induction of cell cycle arrest in human SW620 cells assessed as accumulation of cells at G0/G1 phase incubated for 12 hrs by flow cytometry based analysis; type: functional; settings: dose 5-10 µM
SW13 = test: Cytotoxicity against human SW13 cells assessed as reduction in cell viability incubated for 48 hrs by MTT assay; settings: SW13, 48 h
SW-620 [18] = test: Antitumor activity against human SW620 cells xenografted in Balb/c nude mouse model assessed as reduction in tumor load at 15 mg/kg/day administered for 14 days by vernier caliper based analysis; type: functional, organism-based; settings: time 14.0 day
SW-620 [19] = test: Antitumor activity against human SW620 cells xenografted in Balb/c nude mouse model assessed as inflammatory cell infiltration at 15 mg/kg/day measured after 14 days by H and E staining based analysis; type: functional, organism-based; settings: time 14.0 day
SW-620 [20] = test: Downregulation of ATM level in human SW620 cells measured after 12 hrs by immunoblot analysis; type: functional, cell-based; settings: dose 2.5-10 µM
[21] = Downregulation of ATM level in human HCT-116 cells transfected with ATM shRNA by immunoblot analysis; type: functional
SW480 [22] = test: Cytotoxicity against human SW480 cells transfected with NC shRNA assessed as reduction in cell viability measured after 48 hrs by MTT assay; settings: SW480, 48 h
SW-620 [23] = test: Antitumor activity against human SW620 cells xenografted in Balb/c nude mouse model assessed as reduction in tumor load at 15 mg/kg/day administered for 14 days in presence of AZD6738 by vernier caliper based analysis; type: functional, organism-based; settings: time 14.0 day
HCT-116 [24] = test: Cytotoxicity against human HCT-116 cells assessed as reduction in cell viability incubated for 48 hrs by MTT assay; settings: HCT-116, 48 h
SW-620 [25] = test: Antitumor activity against human SW620 cells xenografted in Balb/c nude mouse model assessed as increase in cleaved-caspase 3 level at 15 mg/kg/day measured after 14 days by Western blot analysis; type: functional, organism-based; settings: time 14.0 day
SW-620 [26] = test: Induction of DNA damage in human SW620 cells assessed as gamma-H2AX accumulation incubated for 12 hrs by immunoblot analysis; type: functional, cell-based; settings: dose 2.5-10 µM
SW480 [27] = test: Cytotoxicity against human SW480 cells transfected with ATM shRNA assessed as reduction in cell viability measured after 48 hrs by MTT assay; settings: SW480, 48 h

With Cc1ncsc1-c1ccc(CNC(=O)[C@@H]2C[C@@H](O)CN2C(=O)[C@@H](NC(=O)CCCCCn2cc(CCCN3C(=O)/C(=C4/C(=O)Nc5ccccc54)c4ccccc43)nn2)C(C)(C)C)cc1 the Activity (K562 [1]) was “Active”, the Activity [2] was 100% and the Activity [3] was “Non-Toxic”. For the same compound, the Activity [4] was 23%, the IC50 at 48 h ([5]; HIEC-6 cells) was 23.9 µM and the Activity ([5]; hiec-6, 48 h, dose 0.01-50 µM, time 48 hrs) was “Dose-Dependent Effect”. For the same compound, the Activity (SW-620 [6]) was “Active”, the Activity (SW480 [7]) was “Active” and the Activity (SW-620 [8]) was “Active”. For the same compound, the Activity (SW-620 [9]) was “Dose-Dependent Effect”, the Activity (K562 [10]) was “Dose-Dependent Effect” and the Activity (SW480 [11]) was “Dose-Dependent Effect”. For the same compound, the Activity (K562 [12]) was “Active”, the IC50 (HCT-116 [13]) was 5.82 µM and the Activity (SW-620 [14]) was “Active”. The Activity (SW-620 [15]) was “Active”, the Activity [16] was “Non-Toxic” and the IC50 (NCI-H358) was over 20 µM. For the same compound, the Activity (SW-620 [17]) was “Dose-Dependent Effect”, the IC50 (SW13) was 3.31 µM and the Activity (SW-620 [18]) was “Active”. The Activity (SW-620 [19]) was “Active”, the Activity (SW-620 [20]) was “Dose-Dependent Effect” and the Activity [21] was 15%. For the same compound, the IC50 (SW480 [22]) was 2.59 µM, the Activity (SW-620 [23]) was “Active” and the IC50 (HCT-116 [24]) was 5.82 µM. For the same compound, the Activity (SW-620 [25]) was “Active”, the Activity (SW-620 [26]) was “Dose-Dependent Effect” and the IC50 (SW480 [27]) was 12.1 µM.

From ChEMBL document CHEMBL5506015, “Discovery of a Meisoindigo-Derived PROTAC as the ATM Degrader: Revolutionizing Colorectal Cancer Therapy via Synthetic Lethality with ATR Inhibitors” (J Med Chem, 2024)
